Assay results as given in US7183383B2, “Uses of collagen IV” (The University of Arkansas for Medical Sciences, priority 2002, dated 2007).

Experiments:
[1] = system: renal proximal tubular cells; assay: Cell density (monolayer protein content) in DCVC-injured RPTC; assay type: cell-based, rabbit
Protocol: Rabbit renal proximal tubules were isolated using the iron oxide perfusion method and grown in 35-mm tissue culture dishes or 48-well cell culture clusters under improved conditions as previously described (35, 36). The cell culture medium was a 1:1 mixture of DMEM/Ham's F-12 (without D-glucose, phenol red, or sodium pyruvate) supplemented with 15 mM HEPES buffer, 2.5 mM L-glutamine, 1 μM pyridoxine HCl, 15 mM sodium bicarbonate, and 6 mM lactate. Hydrocortisone (50 nM), selenium (5 ng/ml), human transferrin (5 μg/ml), bovine insulin (10 nM), and L-ascorbic acid-2-phosphate (50 μM or 500 μM) were added to fresh culture medium immediately prior to daily media change. L-Ascorbic acid-2-phosphate (AscP) was used due to the fact that L-ascorbic acid is unstable in culture media. AscP is stable in culture media for ≧7 days at 37° C. and, after intracellular dephosphorylation, has the same effect on cultured cells as L-ascorbic acid (13).
Confluent monolayers of renal proximal tubular cells (day 6 after seeding) were exposed to 200 μM S-(1,2-dichlorovinyl)-L-cysteine (dissolved in water) for 1.75 hours followed by toxicant removal and addition of fresh culture media. This method produces approximately 50% cell death and loss 24 hours after the exposure. On days 1, 4, and 6 following S-(1,2-dichlorovinyl)-L-cysteine exposure, the ability of the remaining renal proximal tubular cells to regenerate and repair physiological function was monitored as described below. In some experiments, immediately after S-(1,2-dichlorovinyl)-L-cysteine exposure and after daily media change through day 6 after injury, collagen I (0, 5, 15, or 50 μg/ml), collagen IV (0, 5, 15, or 50 μg/ml), laminin (50 μg/ml), or cellular fibronectin (50 μg/ml) was added to the culture media of uninjured and S-(1,2-dichlorovinyl)-L-cysteine-injured renal proximal tubular cells grown in physiological concentrations of AscP. Exogenous collagens I and IV used in this study were triple helical and contained only α1 and α2 chains in conformations similar to those found in the renal basement membrane (3, 25). Laminin was a mixture of biologically active laminin chains found in most epithelial tissues (8, 50) and cellular fibronectin was composed of functional dimers (51).
Measurement of monolayer protein content over time was used to estimate cell density. On days 1, 4, and 6 after sublethal S-(1,2-dichlorovinyl)-L-cysteine injury, renal proximal tubular cell monolayers were washed with PBS and solubilized in Triton buffer (0.05% Triton X-100, 100 mM Tris-Base, 150 mM NaCl, pH 7.5). Samples were sonicated and protein concentrations determined using the method of Lowry (26) or the bicinchoninic acid microassay according to the manufacturer's instructions (Pierce, Rockford, Ill.).

[2] = system: renal proximal tubular cells; assay: Active Na^+ transport (ouabain-sensitive QO2); assay type: cell-based, rabbit; details: for decrease in active Na^+ transport: day 1 after DCVC injury, in presence of the agent; for active Na+ transport in uninjured RPTC: days 1 or 6
Protocol: Confluent monolayers of renal proximal tubular cells (day 6 after seeding) were exposed to 200 μM S-(1,2-dichlorovinyl)-L-cysteine (dissolved in water) for 1.75 hours followed by toxicant removal and addition of fresh culture media. This method produces approximately 50% cell death and loss 24 hours after the exposure. In some experiments, exogenous collagen IV (50 μg/ml), collagen I (50 μg/ml), or function-stimulating antibodies to collagen-binding integrin subunits α2 or β1 (5 μg/ml) was added daily to the culture media of S-(1,2-dichlorovinyl)-L-cysteine-injured renal proximal tubular cells cultured in the absence of pharmacological concentrations of L-ascorbic acid-2-phosphate. Function-stimulating antibodies to collagen-binding integrin α1 are not commercially available at this time. On days 1 and 6 following S-(1,2-dichlorovinyl)-L-cysteine exposure, active Na^+ transport or Na^+/K^+-ATPase activity, and collagen-binding integrin expression and/or localization in the remaining sublethally injured renal proximal tubular cells was determined as described below.
Renal proximal tubular cells were gently detached from culture dishes with a rubber policeman and transferred to a 37° C. oxygen consumption (QO2) chamber. QO2 in renal proximal tubular cells was measured polarographically in the absence (basal QO2) or presence of ouabain (100 μM) (ouabain-insensitive QO2) using a Clark-type electrode as described previously (Nowak and Schnellmann, 1995). Active Na^+ transport (ouabain-sensitive QO2) was calculated by subtracting ouabain-insensitive QO2 from basal QO2. Protein concentrations were determined using the bicinchoninic acid microassay according to the manufacturer's instructions (Pierce, Rockford, Ill.).

[3] = day 6, AscP 500 μM or collagen IV 50 μg/ml

N[C@@H](CSC(Cl)=CCl)C(=O)O [S-(1,2-dichlorovinyl)-L-cysteine]
cell death and loss ([1]; 200 μM for 1.75 hours, 24 hours after the exposure): approximately 50%
decrease in monolayer protein content compared to control ([1]; day 1 after DCVC (200 μM), RPTC cultured in 50 μM AscP): 56%
active Na^+ transport ([2]; day 1 following DCVC injury): marked inhibition
active Na^+ transport ([2]; day 6 after DCVC injury): marked inhibition

collagen IV: Human placenta collagen IV (Sigma); triple helical, containing only α1 and α2 chains
decrease in monolayer cell density ([1]; day 1 after DCVC injury, in presence of exogenous protein): approximately 50%
monolayer protein content in injured RPTC ([1]; day 1 or day 6 after DCVC, 50 μg/ml): no change
cell density as percent of that of uninjured RPTC ([1]; day 6 after DCVC injury, in presence of exogenous protein): approximately 50%
monolayer cell density in untreated RPTC ([1]; uninjured RPTC, days 1 or 6, exogenous protein): no effect
decrease in active Na^+ transport [2]: approximately 80%
active Na^+ transport in DCVC-injured RPTC [2, 3]: increase in active Na^+ transport
active Na^+ transport in DCVC-injured RPTC ([2]; day 6 after injury, 5, 15, 50 μg/ml): concentration-dependent improvement
active Na+ transport in uninjured RPTC [2]: no effect

O=C1O[C@H]([C@@H](O)CO)C(O)=C1OP(=O)(O)O [L-ascorbic acid-2-phosphate, L-Ascorbic acid-2-phosphate]
monolayer protein content ([1]; 4 days after DCVC, 50 μM or 500 μM AscP): remained at day 1 levels
monolayer protein content greater than that of DCVC-treated RPTC grown in 50 μM AscP ([1]; 6 days after DCVC, 500 μM AscP): 34%
cell death and loss (decrease in monolayer protein content) ([1]; day 1 after DCVC, RPTC cultured in 500 μM AscP): 55%
monolayer protein content, untreated RPTC, 50 μM vs 500 μM ([1]; uninjured RPTC, any time point): no significant differences
decrease in active Na^+ transport [2]: approximately 80%
active Na^+ transport in DCVC-injured RPTC [2, 3]: increase in active Na^+ transport
active Na+ transport in uninjured RPTC [2]: no effect
